Test results: ChEMBL document CHEMBL4130560, “Discovery of Indolinone-Based Multikinase Inhibitors as Potential Therapeutics for Idiopathic Pulmonary Fibrosis” (ACS Med Chem Lett, 2017)
One block for each compound: values may come before it.

How the values were obtained:
[1] = biological target: Voltage-gated inwardly rectifying potassium channel KCNH2 (Homo sapiens, UniProt Q12809)
[2] = biological target: Platelet-derived growth factor receptor beta (Homo sapiens, UniProt P09619); test: Inhibition of recombinant PDGFRbeta (unknown origin) by off-chip mobility shift assay
Chain of Platelet-derived growth factor receptor beta (P09619 whole entry): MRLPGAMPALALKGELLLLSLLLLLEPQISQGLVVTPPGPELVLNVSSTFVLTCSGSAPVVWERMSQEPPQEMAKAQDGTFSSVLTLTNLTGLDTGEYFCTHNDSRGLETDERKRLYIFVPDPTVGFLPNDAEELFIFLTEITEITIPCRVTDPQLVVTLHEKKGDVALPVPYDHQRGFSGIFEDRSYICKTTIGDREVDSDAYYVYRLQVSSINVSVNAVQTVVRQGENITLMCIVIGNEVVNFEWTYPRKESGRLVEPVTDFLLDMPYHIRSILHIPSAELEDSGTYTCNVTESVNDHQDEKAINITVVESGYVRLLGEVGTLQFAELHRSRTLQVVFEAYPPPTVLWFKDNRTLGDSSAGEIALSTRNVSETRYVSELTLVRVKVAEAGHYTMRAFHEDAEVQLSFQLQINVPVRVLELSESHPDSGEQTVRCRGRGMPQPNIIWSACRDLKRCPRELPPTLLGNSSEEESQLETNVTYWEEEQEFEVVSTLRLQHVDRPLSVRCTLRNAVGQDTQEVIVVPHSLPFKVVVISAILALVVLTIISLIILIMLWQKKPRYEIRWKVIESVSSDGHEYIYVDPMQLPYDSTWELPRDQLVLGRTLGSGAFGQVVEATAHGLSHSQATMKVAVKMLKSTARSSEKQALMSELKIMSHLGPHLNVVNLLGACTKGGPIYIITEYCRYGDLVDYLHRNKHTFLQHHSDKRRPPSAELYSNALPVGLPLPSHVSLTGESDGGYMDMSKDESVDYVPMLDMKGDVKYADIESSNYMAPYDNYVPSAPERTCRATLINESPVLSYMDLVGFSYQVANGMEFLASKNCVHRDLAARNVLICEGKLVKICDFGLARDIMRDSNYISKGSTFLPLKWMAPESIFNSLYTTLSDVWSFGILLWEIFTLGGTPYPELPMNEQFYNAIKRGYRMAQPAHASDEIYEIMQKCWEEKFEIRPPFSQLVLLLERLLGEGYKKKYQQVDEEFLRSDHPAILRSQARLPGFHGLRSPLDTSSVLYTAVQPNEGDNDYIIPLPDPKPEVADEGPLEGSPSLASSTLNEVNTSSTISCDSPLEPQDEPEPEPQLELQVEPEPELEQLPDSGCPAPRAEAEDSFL

Mus musculus [3] = test: Toxicity in C57 mouse assessed as lethality at 5 mg/kg, iv after 28 days; assay type: organism-based; conditions: in vivo, 672 h
[4] = Half life in Beagle dog […] at 20 mg/kg, iv by UFLC-MS/MS analysis; assay type: ADME, organism-based, Canis lupus familiaris; conditions: in vivo
[5] = Oral bioavailability in Beagle dog […] at 20 mg/kg administered via gavage by UFLC-MS/MS analysis; assay type: ADME, organism-based, Canis lupus familiaris; conditions: in vivo
[6] = Half life in CD1 mouse at 50 mg/kg, iv by UFLC-MS/MS analysis; assay type: ADME, organism-based; conditions: in vivo
Mus musculus [7] = test: Antifibrotic activity in BLM-induced chronic pulmonary fibrosis C57 mouse model assessed as increase in survival rate administered qd measured up to 28 days; assay type: functional, organism-based
[8] = Half life in Sprague-Dawley rat at 10 mg/kg, iv by UFLC-MS/MS analysis; assay type: ADME, organism-based; conditions: in vivo
Mus musculus [9] = test: Toxicity in C57 mouse at 10 to 100 mg/kg, po administered qd measured up to 28 days; assay type: organism-based; conditions: in vivo, 672 h
[10] = Oral bioavailability in Sprague-Dawley rat at 10 mg/kg administered via gavage by UFLC-MS/MS analysis; assay type: ADME, organism-based; conditions: in vivo
[11] = biological target: Mast/stem cell growth factor receptor Kit (Homo sapiens, UniProt P10721); test: Inhibition of recombinant c-KIT (unknown origin) by off-chip mobility shift assay
Chain of Mast/stem cell growth factor receptor Kit (P10721 whole entry): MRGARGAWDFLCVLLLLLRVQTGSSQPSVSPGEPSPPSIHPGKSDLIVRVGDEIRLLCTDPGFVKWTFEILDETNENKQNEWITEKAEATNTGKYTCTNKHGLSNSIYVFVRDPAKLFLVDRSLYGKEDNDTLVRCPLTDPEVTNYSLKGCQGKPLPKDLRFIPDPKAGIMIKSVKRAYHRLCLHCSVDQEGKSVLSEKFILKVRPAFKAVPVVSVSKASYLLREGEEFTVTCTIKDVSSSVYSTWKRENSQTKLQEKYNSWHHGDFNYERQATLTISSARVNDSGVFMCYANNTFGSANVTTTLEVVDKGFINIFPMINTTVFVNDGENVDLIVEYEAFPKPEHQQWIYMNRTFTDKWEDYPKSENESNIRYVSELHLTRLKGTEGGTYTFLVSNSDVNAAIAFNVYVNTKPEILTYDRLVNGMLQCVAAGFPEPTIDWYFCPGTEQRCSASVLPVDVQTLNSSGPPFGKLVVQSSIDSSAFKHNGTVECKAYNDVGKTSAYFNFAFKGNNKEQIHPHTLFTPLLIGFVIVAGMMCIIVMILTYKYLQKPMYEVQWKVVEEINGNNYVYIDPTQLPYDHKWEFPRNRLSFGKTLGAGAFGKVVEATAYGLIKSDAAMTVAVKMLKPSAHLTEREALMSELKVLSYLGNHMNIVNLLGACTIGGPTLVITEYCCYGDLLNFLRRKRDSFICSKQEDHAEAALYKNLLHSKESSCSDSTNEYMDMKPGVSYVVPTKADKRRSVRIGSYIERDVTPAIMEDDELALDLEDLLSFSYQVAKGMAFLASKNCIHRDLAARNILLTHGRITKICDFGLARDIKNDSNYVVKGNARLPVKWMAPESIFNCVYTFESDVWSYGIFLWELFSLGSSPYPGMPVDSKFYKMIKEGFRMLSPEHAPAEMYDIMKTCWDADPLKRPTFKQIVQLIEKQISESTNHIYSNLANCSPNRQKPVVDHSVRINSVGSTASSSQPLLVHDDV

[12] = AUC in Beagle dog […] at 20 mg/kg, iv by UFLC-MS/MS analysis; assay type: ADME, organism-based, Canis lupus familiaris; conditions: in vivo
[13] = Oral bioavailability in CD1 mouse at 50 mg/kg administered via gavage by UFLC-MS/MS analysis; assay type: ADME, organism-based; conditions: in vivo
[14] = AUC in CD1 mouse at 50 mg/kg, iv by UFLC-MS/MS analysis; assay type: ADME, organism-based; conditions: in vivo
[15] = AUC in Sprague-Dawley rat at 10 mg/kg, iv by UFLC-MS/MS analysis; assay type: ADME, organism-based; conditions: in vivo

Chain of Voltage-gated inwardly rectifying potassium channel KCNH2 (Q12809 whole entry): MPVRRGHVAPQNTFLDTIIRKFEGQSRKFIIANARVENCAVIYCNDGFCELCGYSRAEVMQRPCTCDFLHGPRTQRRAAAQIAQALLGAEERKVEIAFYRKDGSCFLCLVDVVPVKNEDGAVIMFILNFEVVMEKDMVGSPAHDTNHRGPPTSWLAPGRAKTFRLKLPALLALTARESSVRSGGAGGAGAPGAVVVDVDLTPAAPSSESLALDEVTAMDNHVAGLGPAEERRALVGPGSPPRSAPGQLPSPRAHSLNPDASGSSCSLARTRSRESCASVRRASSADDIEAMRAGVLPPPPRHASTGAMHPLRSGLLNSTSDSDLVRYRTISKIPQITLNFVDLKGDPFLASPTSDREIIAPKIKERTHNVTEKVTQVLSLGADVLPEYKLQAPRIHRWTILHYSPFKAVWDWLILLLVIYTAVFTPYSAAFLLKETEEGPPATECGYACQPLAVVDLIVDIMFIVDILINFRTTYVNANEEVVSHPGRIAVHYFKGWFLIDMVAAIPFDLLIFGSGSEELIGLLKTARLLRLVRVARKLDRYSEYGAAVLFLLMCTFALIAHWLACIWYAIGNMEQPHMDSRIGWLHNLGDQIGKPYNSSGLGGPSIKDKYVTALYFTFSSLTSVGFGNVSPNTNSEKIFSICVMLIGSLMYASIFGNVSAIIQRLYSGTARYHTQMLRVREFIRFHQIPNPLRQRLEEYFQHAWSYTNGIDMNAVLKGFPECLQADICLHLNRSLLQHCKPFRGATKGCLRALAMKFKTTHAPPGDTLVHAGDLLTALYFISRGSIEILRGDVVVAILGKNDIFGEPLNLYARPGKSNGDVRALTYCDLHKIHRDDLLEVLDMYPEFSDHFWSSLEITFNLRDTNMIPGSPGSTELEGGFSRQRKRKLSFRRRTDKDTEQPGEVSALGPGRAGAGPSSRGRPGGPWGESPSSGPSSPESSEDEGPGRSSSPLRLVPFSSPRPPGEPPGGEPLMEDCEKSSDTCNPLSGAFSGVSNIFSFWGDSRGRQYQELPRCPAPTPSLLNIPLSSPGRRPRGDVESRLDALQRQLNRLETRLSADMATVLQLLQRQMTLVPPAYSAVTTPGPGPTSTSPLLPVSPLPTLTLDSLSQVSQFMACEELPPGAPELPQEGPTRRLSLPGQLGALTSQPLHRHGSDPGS

Structure (SMILES): COC(=O)c1ccc2c(c1)NC(=O)/C2=C(\Nc1ccc(N(C)C(=O)CN2CCN(C)CC2)cc1)c1ccccc1 [NINTEDANIB]
IC50 [1]: 2.6 nM

Structure (SMILES): CN1CCN(CC(=O)N(C)c2ccc(N/C(=C3\C(=O)Nc4cc(OC(F)(F)F)ccc43)c3ccccc3)cc2)CC1
IC50 [2]: 27 nM

Structure (SMILES): COC(=O)c1ccc2c(c1)NC(=O)/C2=C(\Nc1ccc2c(c1)N(C(=O)CN1CCCC1=O)CC2)c1ccccc1
IC50 [1]: > 30 nM
IC50 [2]: 19 nM

Structure (SMILES): CN1CCN(CC(=O)N(C)c2ccc(N/C(=C3\C(=O)Nc4cc(-c5ncon5)ccc43)c3ccccc3)cc2)CC1
Activity (Mus musculus [3]): Toxic
IC50 [2]: 5.3 nM

Structure (SMILES): COC(=O)c1ccc2c(c1)NC(=O)/C2=C(\Nc1ccc2c(c1)N(C(=O)CN1CCOCC1)CC2)c1ccccc1
IC50 [1]: > 30 nM
half-life [4]: 3.3 h
bioavailability [5]: 29%
half-life [6]: 4.3 h
Activity (Mus musculus [7]): Dose-dependent effect
half-life [8]: 4.8 h
Activity (Mus musculus [9]): Non-Toxic
bioavailability [10]: 68%
IC50 [2]: 25 nM
IC50 [11]: 10 nM
AUC [12]: 2960 ng·h/mL
bioavailability [13]: 51%
AUC [14]: 17000 ng·h/mL
AUC [15]: 6410 ng·h/mL

Structure (SMILES): COC(=O)c1ccc2c(c1)NC(=O)/C2=C(\Nc1ccc(N2CCC(CN3CCN(C)CC3)C2=O)cc1)c1ccccc1 (stereo unspecified)
IC50 [2]: 45 nM

Structure (SMILES): COC(=O)c1ccc2c(c1)NC(=O)/C2=C(\Nc1ccc2c(c1)N(C(=O)Cn1cccn1)CC2)c1ccccc1
IC50 [1]: > 30 nM
IC50 [2]: 24 nM

Structure (SMILES): COC(=O)c1ccc2c(c1)NC(=O)/C2=C(\Nc1ccc2c(c1)N(C(=O)CN1CC(C)OC(C)C1)CC2)c1ccccc1 (stereo unspecified)
IC50 [1]: > 30 nM
IC50 [2]: 91 nM

Structure (SMILES): CN1CCN(CC(=O)N(C)c2ccc(N/C(=C3\C(=O)Nc4cc(-c5cnco5)ccc43)c3ccccc3)cc2)CC1
IC50 [2]: 34 nM

The remaining compounds from weak to strong by IC50 [2], led by results:

IC50 [2]: 15 nM
Structure (SMILES): COC(=O)c1ccc2c(c1)NC(=O)/C2=C(\Nc1ccc2c(c1)N(C(=O)CN(C)C)CC2)c1ccccc1

IC50 [2]: 15 nM
Structure (SMILES): COC(=O)c1ccc2c(c1)NC(=O)/C2=C(\Nc1ccc2c(c1)N(C(=O)Cn1cncn1)CC2)c1ccccc1
IC50 [1]: > 30 nM

IC50 [2]: 14 nM
Structure (SMILES): COC(=O)c1ccc2c(c1)NC(=O)/C2=C(\Nc1ccc(N2C(=O)CC[C@@H]2CN(C)C)cc1)c1ccccc1

IC50 [2]: 13 nM
Structure (SMILES): CN1CCN(CC(=O)N(C)c2ccc(N/C(=C3\C(=O)Nc4cc(-c5nnn(C)n5)ccc43)c3ccccc3)cc2)CC1

IC50 [2]: 12 nM
Structure (SMILES): CN1CCN(CC(=O)N(C)c2ccc(N/C(=C3\C(=O)Nc4cc(-c5ccco5)ccc43)c3ccccc3)cc2)CC1

IC50 [2]: 4.5 nM
Structure (SMILES): CN1CCN(CC(=O)N(C)c2ccc(N/C(=C3\C(=O)Nc4cc(-c5ncno5)ccc43)c3ccccc3)cc2)CC1

IC50 [2]: 4.3 nM
Structure (SMILES): COC(=O)c1ccc2c(c1)NC(=O)/C2=C(\Nc1ccc(N2C(=O)CC[C@H]2CN2CCN(C)CC2)cc1)c1ccccc1

IC50 [2]: 3.2 nM
Structure (SMILES): COC(=O)c1ccc2c(c1)NC(=O)/C2=C(\Nc1ccc(N2C(=O)CC[C@@H]2CN2CCN(C)CC2)cc1)c1ccccc1

IC50 [2]: 1.5 nM
Structure (SMILES): CN1CCN(CC(=O)N(C)c2ccc(N/C(=C3\C(=O)Nc4cc(-n5nccn5)ccc43)c3ccccc3)cc2)CC1
